Test results taken from patent publication US20250092056A1, “URACIL DERIVATIVES HAVING VIRUS REPLICATION INHIBITORY ACTIVITY AND PHARMACEUTICAL COMPOSITION COMPRISING THE SAME” (Shionogi & Co., Ltd., priority 2022, published 2025).
pEC50, pIC50: −log10 of the molar value. Read-outs that look alike come from different tables or passages of the source.

Tests used:
SARS-CoV-2 = test: Cytopathic effect (CPE) suppression effect confirmation test using HEK293T/ACE2-TMPRSS2 cells; type: cell-based; conditions: Severe acute respiratory syndrome coronavirus 2, HEK-293T
[1] = molecular target: Recombinant SARS-CoV-2 3CL Protease (Severe acute respiratory syndrome coronavirus 2 (2019-nCoV) (SARS-CoV-2), UniProt P0DTD1); test: biochemical; type: biochemical; conditions: 50% SARS-CoV-2 3CL protease inhibitory concentration; read-out: IC50
[2] = 72 h, read-out: EC50 (50% SARS-CoV-2 infected cell death inhibitory concentration), HEK293T/ACE2-TMPRSS2 cells, CPE suppression, CellTiter-Glo 2.0 after 3 days culture
[3] = 50% SARS-CoV-2 infected cell death inhibitory concentration, HEK293T/ACE2-TMPRSS2 cells, read-out: EC50

SMILES	pEC50 (SARS-CoV-2; 72 h, HEK293T/ACE2-TMPRSS2 cells, CPE suppression, CellTiter-Glo 2.0 after 3 days culture, read-out: EC50 (50% SARS-CoV-2 infected cell death inhibitory concentration), class)	pIC50 [1]	pEC50 (SARS-CoV-2; 72 h, read-out: EC50 (50% SARS-CoV-2 infected cell death inhibitory concentration), class, HEK293T/ACE2-TMPRSS2 cells, CPE suppression, CellTiter-Glo 2.0 after 3 days culture)	pEC50 (SARS-CoV-2; [2])	pEC50 (SARS-CoV-2; [3])
Cc1cncc(-n2c(=O)c(Cc3cc(F)c(F)c(F)c3)c(N3CCCC3)n(CC#N)c2=O)c1 [Compound I-203]	> 7.00	7.00 to 8.00	–	–	–
Cc1cncc(-n2c(=O)c(Cc3cc(F)c(F)c(F)c3)c(N3Cc4cn[nH]c4C3)n(CC#N)c2=O)c1 [Compound I-204]	–	> 8.00	> 7.00	–	–
Cc1cncc(-n2c(=O)c(Cc3cc(F)c(F)c(F)c3)c(N3Cc4ccccc4C3)n(CC#N)c2=O)c1 [Compound I-205]	–	9.12	–	8.30	–
N#CCn1c(N2CC3(C2)CC(F)(F)C3)c(-c2ccc(F)c(Cl)c2)c(=O)n(-c2cncc(C#N)n2)c1=O [Compound I-206]	–	> 8.00	–	–	> 7.00
N#CCn1c(N2CC3(C2)CC(F)(F)C3)c(-c2ccc(F)c(Cl)c2)c(=O)n(-c2cncc(C(F)(F)F)n2)c1=O [Compound I-207]	–	> 8.00	–	–	> 7.00
N#CCn1c(N2CC3(C2)CC(F)(F)C3)c(-c2ccc(F)c(Cl)c2)c(=O)n(-c2cncc(C(F)F)n2)c1=O [Compound I-208]	–	8.74	–	8.15	–
N#CCc1cncc(-n2c(=O)c(-c3ccc(F)c(Cl)c3)c(N3CC4(C3)CC(F)(F)C4)n(CC#N)c2=O)n1 [Compound I-209]	–	> 8.00	–	–	> 7.00
N#CCn1c(N2CC3(C2)CC(F)(F)C3)c(-c2ccc(F)c(Cl)c2)c(=O)n(CC#N)c1=O [Compound I-210]	–	< 7.00	–	–	6.00 to 7.00
Cc1cncc(-n2c(=O)c(-c3ccc(F)c(Cl)c3)c(C3=CCOCC3)n(CC#N)c2=O)c1 [Compound I-211]	–	> 8.00	–	–	> 7.00
Cc1cncc(-n2c(=O)c(-c3ccc(F)c(Cl)c3)c(/C=C/c3ccc(C(F)(F)F)cc3)n(CC#N)c2=O)c1 [Compound I-212]	–	7.00 to 8.00	–	–	6.00 to 7.00
Cc1cncc(-n2c(=O)c(-c3cc(F)c(F)c(F)c3)c(CCC(C)(C)O)n(CC#N)c2=O)c1 [Compound I-213]	–	> 8.00	–	–	> 7.00
N#CCn1c(N2CC3(C2)CC(F)(F)C3)c(-c2ccc(F)c(Cl)c2)c(=O)n(-c2cc(Cl)cnn2)c1=O [Compound I-214]	–	> 8.00	–	–	> 7.00
COc1cnnc(-n2c(=O)c(-c3ccc(F)c(Cl)c3)c(N3CC4(C3)CC(F)(F)C4)n(CC#N)c2=O)c1 [Compound I-215]	–	> 8.00	–	–	> 7.00
N#CCn1c(N2CC3(C2)CC(F)(F)C3)c(-c2ccc(F)c(Cl)c2)c(=O)n(-c2cc(C#N)cnn2)c1=O [Compound I-216]	–	> 8.00	–	–	> 7.00
N#CCn1c(N2CC3(C2)CC(F)(F)C3)c(-c2ccc(F)c(Cl)c2)c(=O)n(-c2cc(OCC(F)F)cnn2)c1=O [Compound I-217]	–	> 8.00	–	–	> 7.00
CNc1cnnc(-n2c(=O)c(-c3ccc(F)c(Cl)c3)c(N3CC4(C3)CC(F)(F)C4)n(CC#N)c2=O)c1 [Compound I-218]	–	> 8.00	–	–	5.30 to 6.00
CN(C)c1cnnc(-n2c(=O)c(-c3ccc(F)c(Cl)c3)c(N3CC4(C3)CC(F)(F)C4)n(CC#N)c2=O)c1 [Compound I-219]	–	7.00 to 8.00	–	–	6.00 to 7.00
Cc1cc(-n2c(=O)c(-c3ccc(F)c(Cl)c3)c(-c3ccc(C(F)F)cc3)n(CC#N)c2=O)cc(=O)[nH]1 [Compound I-220]	–	> 8.00	–	–	6.00 to 7.00
Cc1cc(-n2c(=O)c(-c3ccc(F)c(Cl)c3)c(N3CC4(C3)CC(F)(F)C4)n(CC#N)c2=O)[nH]c(=O)c1 [Compound I-221]	–	< 7.00	–	–	5.30 to 6.00
CC(C)N1CCN(c2c(-c3ccc(F)c(Cl)c3)c(=O)n(-c3cncc(Cl)c3)c(=O)n2CC#N)CC1=O [Compound I-223]	–	> 8.00	–	–	> 7.00
CCN1CCN(c2c(-c3ccc(F)c(Cl)c3)c(=O)n(-c3cncc(C)c3)c(=O)n2CC#N)CC1=O [Compound I-224]	–	> 8.00	–	–	> 7.00
Cc1cncc(-n2c(=O)c(-c3ccc(F)c(Cl)c3)c(N3C[C@@H]4C[C@H]3CO4)n(CC#N)c2=O)c1 [Compound I-225]	–	> 8.00	–	–	> 7.00
Cc1cncc(-n2c(=O)c(-c3ccc(F)c(Cl)c3)c(N3C[C@H]4C[C@@H]3CO4)n(CC#N)c2=O)c1 [Compound I-226]	–	> 8.00	–	–	> 7.00
N#CCn1c(N2CC3(CCOC3)C2)c(C2=CCCCCC2)c(=O)n(-c2cncc(Cl)c2)c1=O [Compound I-227]	–	> 8.00	–	–	> 7.00
Cc1cnnc(-n2c(=O)c(-c3ccc(F)c(Cl)c3)c(N3CC4(C3)CC(F)(F)C4)n(CC#N)c2=O)c1 [Compound I-228]	–	> 8.00	–	–	> 7.00
N#CCn1c(N2CC3(C2)CC(F)(F)C3)c(-c2ccc(F)c(Cl)c2)c(=O)n(-c2cc(C(F)(F)F)cnn2)c1=O [Compound I-229]	–	> 8.00	–	–	> 7.00

SMILES	pEC50 (SARS-CoV-2; 72 h, HEK293T/ACE2-TMPRSS2 cells, CPE suppression, CellTiter-Glo 2.0 after 3 days culture, read-out: EC50 (50% SARS-CoV-2 infected cell death inhibitory concentration), class)	pIC50 [1]	pEC50 (SARS-CoV-2; 72 h, read-out: EC50 (50% SARS-CoV-2 infected cell death inhibitory concentration), class, HEK293T/ACE2-TMPRSS2 cells, CPE suppression, CellTiter-Glo 2.0 after 3 days culture)	pEC50 (SARS-CoV-2; [2])	pEC50 (SARS-CoV-2; [3])
N#CCn1c(N2CC3(C2)CC(F)(F)C3)c(-c2ccc(F)c(Cl)c2)c(=O)n(-c2cncc(F)c2)c1=O [Compound I-231]	–	> 8.00	–	–	> 7.00
N#CCn1c(N2CC(O)(c3ncccn3)C2)c(-c2ccc(F)c(Cl)c2)c(=O)n(-c2cncc(Cl)c2)c1=O [Compound I-232]	–	9.07	–	8.19	–
N#CCn1c(N2CC(c3ncccn3)C2)c(-c2ccc(F)c(Cl)c2)c(=O)n(-c2cncc(Cl)c2)c1=O [Compound I-233]	–	> 8.00	–	–	> 7.00
N#CCn1c(N2CC(O)(c3ncc(F)cn3)C2)c(-c2ccc(F)c(Cl)c2)c(=O)n(-c2cncc(Cl)c2)c1=O [Compound I-234]	–	8.92	–	8.18	–
N#CCn1c(N2CC[C@H](C(=O)N3CC(F)(F)C3)C2)c(-c2ccc(F)c(Cl)c2)c(=O)n(-c2cncc(Cl)c2)c1=O [Compound I-235]	–	> 8.00	–	–	> 7.00
N#CCn1c(N2CC[C@@H](C(=O)C3CC(F)(F)C3)C2)c(-c2ccc(F)c(Cl)c2)c(=O)n(-c2cncc(Cl)c2)c1=O [Compound I-236]	–	> 8.00	–	–	> 7.00
N#CCn1c(N2CC(O)(c3cnccn3)C2)c(-c2ccc(F)c(Cl)c2)c(=O)n(-c2cncc(Cl)c2)c1=O [Compound I-237]	–	> 8.00	–	–	> 7.00
N#CCn1c(N2CCCO2)c(-c2ccc(F)c(Cl)c2)c(=O)n(-c2cncc(Cl)c2)c1=O [Compound I-242]	–	7.00 to 8.00	–	–	> 7.00
N#CCn1c(N2CCOC2=O)c(-c2ccc(F)c(Cl)c2)c(=O)n(-c2cncc(Cl)c2)c1=O [Compound I-243]	–	< 7.00	–	–	6.00 to 7.00
CN1CCN(c2c(-c3ccc(F)c(Cl)c3)c(=O)n(-c3cncc(Cl)c3)c(=O)n2CC#N)C1=O [Compound I-244]	–	7.00 to 8.00	–	–	> 7.00
N#CCn1c(OC2CC(F)(F)C2)c(-c2ccc(F)c(Cl)c2)c(=O)n(-c2cncc(Cl)c2)c1=O [Compound I-245]	–	7.00 to 8.00	–	–	> 7.00
N#CCn1c(Oc2cncc(Cl)c2)c(-c2ccc(F)c(Cl)c2)c(=O)n(-c2cncc(Cl)c2)c1=O [Compound I-246]	–	> 8.00	–	–	6.00 to 7.00
N#CCn1c(N2CC3(C2)CC(F)(F)C3)c(-c2ccc(F)c(Cl)c2)c(=O)n(-c2cncc(C#N)c2)c1=O [Compound I-247]	–	> 8.00	–	–	> 7.00
Cc1cncc(-n2c(=O)c(-c3ccc(F)c(Cl)c3)c(C#CC3CC3)n(CC#N)c2=O)c1 [Compound I-248]	–	> 8.00	–	–	6.00 to 7.00
N#CCn1c(N2CC(CO)C2)c(-c2ccc(F)c(Cl)c2)c(=O)n(-c2cncc(Cl)c2)c1=O [Compound I-249]	–	9.27	–	8.10	–
N#CCn1c(N2CC(C(F)F)C2)c(-c2ccc(F)c(Cl)c2)c(=O)n(-c2cncc(Cl)c2)c1=O [Compound I-250]	–	9.27	–	8.48	–
N#CCn1c(N2CCC2)c(-c2ccc(F)c(Cl)c2)c(=O)n(-c2cncc(Cl)c2)c1=O [Compound I-251]	–	> 8.00	–	–	> 7.00
Cc1cnc(F)c(-n2c(=O)c(-c3ccc(F)c(Cl)c3)c(N3CC4(C3)CC(F)(F)C4)n(CC#N)c2=O)c1 [Compound I-255]	–	> 8.00	–	–	> 7.00
N#CCn1c(N2CC(O)(c3nccs3)C2)c(-c2ccc(F)c(Cl)c2)c(=O)n(-c2cncc(Cl)c2)c1=O [Compound I-256]	–	> 8.00	–	–	> 7.00
N#CCn1c(N2CC(OC(F)(F)F)C2)c(-c2ccc(F)c(Cl)c2)c(=O)n(-c2cncc(Cl)c2)c1=O [Compound I-257]	–	9.46	–	8.53	–
N#CCn1c(N2CC3(C2)CC(F)(F)C3)c(-c2cncc(Cl)c2)c(=O)n(-c2cncc(Cl)c2)c1=O [Compound I-258]	–	> 8.00	–	–	> 7.00
N#CCn1c(N2CC3(C2)CC(O)(c2ccccc2)C3)c(-c2ccc(F)c(Cl)c2)c(=O)n(-c2cncc(Cl)c2)c1=O [Compound I-259]	–	9.35	–	8.26	–
COc1cncc(-n2c(=O)c(-c3ccc(F)c(Cl)c3)c(N3CC4(C3)CC(F)(F)C4)n(CC#N)c2=O)n1 [Compound I-260]	–	> 8.00	–	–	> 7.00
N#CCn1c(N2CC(O)(c3ncccn3)C2)c(-c2ccc(F)c(Cl)c2)c(=O)n(-c2cncc(C(F)(F)F)c2)c1=O [Compound I-261]	–	7.74	–	7.46	–
CC(=O)Nc1cccc(-c2c(N3CCC(F)(F)CC3)n(CC#N)c(=O)n(-c3cncc(Cl)c3)c2=O)c1 [Compound I-263]	–	< 7.00	–	–	5.30 to 6.00
N#CCn1c(N2CC3(CCOC3)C2)c(C2=CCCCC2)c(=O)n(-c2cncc(Cl)c2)c1=O [Compound I-264]	–	> 8.00	–	–	> 7.00
